Data: patent US8519127B2, “Cyclic glycyl-2-allyl proline and its use in treatment of peripheral neuropathy” (priority 2003, dated 2013)

Assays:
[1] = system: cerebellar neurons; experiment: Cerebellar microexplants exposed to glutamate and 3-nitropropionic acid; live neurons with neurites counted; assay type: cell-based, rat; details: for number of cells having neurites: administered simultaneously with glutamate, FIG. 1 / FIG. 2; for glutamate-induced neurotoxicity: low doses (cG-2AllylP: 100 pm to 10 nm)
Method: Cover slips were placed into a large Petri dish and washed in 70% alcohol for 5 minutes, then washed with Millipore H2O. The cover slips were air dried, and coated with Poly-D-Lysine (1 mg/ml stock solution in PBS, 90-100 μl) for 2 hours at 34° C.
Postnatal day 8 Wistar rats were used for the study. The rats were sacrificed and placed in ice for 1 minute, decapitated and the cerebellum removed and placed on ice. Cerebellum tissue was placed in 1 ml of 0.65% glucose-supplemented PBS (10 μl 65% stock D (+)glucose/1 ml PBS) in a large Petri dish, chopped up into smaller sections and triturated with a 1 ml insulin syringe via a 23 G (0.4 mm) needle, and then squirted back into the glucose solution in the large Petri dish. The tissue was sieved through (125 μm pore size gauze) and centrifuged (2 minutes at 60 g) twice to exchange the medium into serum-free BSA-supplemented START V medium (Biochrom, Germany). The second centrifugation step was done with 1 ml of START V medium. The microexplants were reconstituted into 500 μl of START V medium and put on ice.
Two hours after PDL-coating, the slides were washed with Millipore H2O and air dried. Each slide was placed into a small Petri dish (diameter: 35 mm) and 40 μl of START V/cell suspension was added. The tissue was incubated for 2 hours at 34° C. (settlement period). START V-medium (1 ml) was then added to the Petri dish and cultivated at 34° C. in the presence of 5% CO2 in air at 100% humidity for 48 hours.
For the study, certain explant cultures were exposed to vehicle (PBS) only. In the first study (Study 1) 10 μl of toxin 1 (L-glutamate-100 mM in Millipore water; final concentration: 1 mM) and 10 μl of toxin 2 (3-nitropropionic acid-50 mM-pH 7-in Millipore water, final concentration: 0.5 mM) was applied simultaneously with the drug to be tested ([…]). In each case, the drugs were left in contact with the explants for the duration of the study.
After explants were exposed to drugs for the study period, cells were then rinsed in PBS and then fixed in increasing concentrations of paraformaldehyde (500 μl of 0.4% PFA was applied; then 1.2% PFA; then 3% PFA and finally 4% PFA (each fixation step: 2-3 minutes). Finally, the microexplants were rinsed in PBS.
Neurons in the explants were then evaluated for morphology (presence of neurites) and counted as live cells per microscopic field. Four fields displaying highest cell density were counted per cover slip and the data presented as mean±standard error of the mean (SEM); n=4 each. Statistical significance was evaluated by using the non-paired Student's t-test.

[2] = system: rats exposed to hypoxic-ischemic injury (HI); experiment: Hypoxic-ischemic injury (modified Levine model), histological tissue damage score; assay type: in vivo, rat
Method: To determine whether cG-2AllylP might prevent neuronal injury in response to stroke, cardiac arterial bypass graft surgery (CABG) or other hypoxic insults, a series of studies were carried out in rats that had been exposed to hypoxic-ischemic injury (HI). Adult rats (Wistar, 280-310 g, male) were used. The modified Levine model preparation and experimental procedures were used (Rice et al, 1981, Ann. Neural.: 9: 131-141; Guan et al J., 1993, Cereb. Blood Flow Metab.: 13(4): 609-16). These procedures in brief, consist of an HI injury induced by unilateral carotid artery ligation followed by inhalational asphyxia in the animals with an implanted lateral ventricular cannula. A guide cannula was stereotaxically placed on the top of the dura 1.5 mm to the right of the mid-line and 7.5 mm anterior to the interaural zero plane under halothane anaesthesia. The right carotid artery was double ligated two days after the cannulation. After 1 hour recovery from the anaesthesia, each of the rats were placed in an incubator where the humidity (90±5%) and temperature (31°±0.5° C.) were controlled for another hour, then exposed to hypoxia (6% oxygen) for 10 min, The animals were kept in the incubator for an additional 2 hours before treatment.
Nine pairs of rats were treated intracerebral ventricularly (icy) with either cG-2AllylP (2 ng) or its vehicle (normal saline) 2 hours after hypoxic-ischemic insult. Rats in each group were simultaneously infused with cG-2AllylP or its vehicle under light anaesthesia (1.5% halothane) 2 hours after the insult. […]
Coronal sections 8 μm in thickness were cut from the striatum, cerebral cortex and hippocampus and were stained with thionin and acid fuchsin. The histological outcome was assessed at three levels: (1) the mid level of the striatum, (2) where the completed hippocampus first appeared and (3) the level where the ventral horn of the hippocampus just appears. The severity of tissue damage was scored in the striatum, cortex and the CA1-2, CA3, CA4 and dentate gyrus of the hippocampus. […]

[3] = system: pyridoxine-intoxicated rats; experiment: Pyridoxine-induced peripheral neuropathy: body weight and beam walk errors; assay type: in vivo, rat; details: for body weight (percentage of baseline weight): pyridoxine 400 mg/kg i.p. b.i.d. days 1-8, vs vehicle, FIG. 5
Method: […] Sprague-Dawley rats were habituated to walk across a wooden beam (4 cm diameter, 175 cm long, circular cross-section) over a training period of 8 days prior to initiating neuropathic toxicity treatment. Animals were weighed on the day prior to pyridoxine injection (mean body weight 270 g) and were randomized into treatment groups as follows: vehicle control (distilled water, n=16), 3 mg/kg cG-2-allylP (n=16) or 30 mg/kg cG-2-allylP (n=16). All groups received pyridoxine (400 mg/kg i.p.) 2/day for 8 days (days 1-8) and either vehicle or cG-2-allylP (3 or 30 mg/kg, p.o.) 1/day on days 1-10. Body weights were monitored throughout treatment and until study day 28. Beam walking was assessed on days 0 (baseline), 14, 21, and 28. Beam walk errors were assessed according to the method of Callizot (Callizot et al, Pyridoxine-Induced Neuropathy in Rats: a Sensory neuropathy that Responds to 4-methylcatechol, Neurobiol. Dis. 8:626-635 (2001.)) incorporated herein fully by reference. Each rat was scored for 7 steps taken in traversing the beam, as follows: 1=hind-paw placed on the top of the beam (normal); 2=paw contacted the lateral line of the beam; 3=paw overlapping the lateral line on the beam; 4=rat unable to place its feet on the beam. Rats that could walk across the beam therefore recorded a maximum functional deficit score of 28. Rats unable to take 7 steps along the beam scored 30, while rats unable to balance on the beam at all scored 32.
Two-way analysis of variance (ANOVA) was conducted on beam walk performance data, with time and treatment as variables, applying Bonferroni post-hoc tests to assess individual treatment condition differences. Statistical significance was assumed if p<0.05.

[4] = system: diabetic rats; experiment: Streptozotocin-induced diabetic neuropathy, tactile allodynia (von Frey hairs); assay type: in vivo, rat; details: 3-30 mg/kg p.o. 1/day for 14 days; STZ-diabetic rats
Method: Rats (225-250 g) are rendered diabetic by an i.p. injection of streptozotocin (STZ; 75 mg/kg). A diabetic condition is confirmed in each rat 10 days later by measurement of tail vein blood glucose levels. Only rats with a final blood glucose level>13.8 mM are considered diabetic and are included in the experiment.
Hyperglycemic, diabetic rats are dosed with cG-2-allylP (3-30 mg/kg, p.o. 1/day) from day 14 until day 28 (for a total of 14 days of treatment). Glucose measurements are taken on day 14 (pre-dose), day 21, day 28 and day 42.
Rats are tested for tactile allodynia on days 14 (pre-dose), and on days 16, 21, 28, 35 and 42 using van Frey hairs. Rats are tested for responsivity to von Frey hairs with calibrated bending forces of 1.5-15 g, to deliver punctate mechanical stimuli of varying intensities. Filaments exerting a force above 15 g are not used. Starting with the lowest filament force (1.5 g), von Frey hairs are applied to the plantar surface of the hind paw, with sufficient force to cause slight bending against the paw, and held for 1 s. Each stimulation is applied five times with an inter-stimulus interval of 5-10 s. Care is taken to stimulate random locations on the plantar surface. A positive response is noted if the paw was robustly and immediately withdrawn. […]

[5] = system: cleaved caspase-3 protein; details: rats exposed to hypoxia/ischaemia; cited from earlier work
[6] = system: microglia; details: response to hypoxia-ischemia in rat model; cited from earlier work

Structure (SMILES)	number of cells having neurites [1]	glutamate-induced neurotoxicity [1]	loss of cerebellar neurons having neurites ([1]; glutamate 1 mM, compared to vehicle-treated controls, FIG. 1) [%]	tissue damage score ([2]; 2 ng icv 2 hours after hypoxic-ischemic insult, histology 5 days after injury, vs vehicle, p<0.001, FIG. 3)	neuronal damage scores ([2]; 2, 4, 20, 100 ng icv 2 hours after insult, all sites and doses other than 100 ng in striatum, FIG. 4)	efficacy by brain region ([2]; regions with progressive injury such as dentate gyrus and cerebral cortex, FIG. 4)	body weight (percentage of baseline weight) ([3]; 3 mg/kg p.o. 1/day days 1-10)	body weight (percentage of baseline weight) ([3]; 3 mg/kg p.o. 1/day days 1-10, listed as cG-2allylP)	body weight (percentage of baseline weight) ([3]; 30 mg/kg p.o. 1/day days 1-10)	body weight (percentage of baseline weight) ([3]; 30 mg/kg p.o. 1/day days 1-10, listed as cG-2allylP)	beam walking errors ([3]; 30 mg/kg p.o. days 1-10, test days 14, 21, 28, p<0.05 vs vehicle, FIG. 6)	pain threshold in response to von Frey hair pressure to hind paws [4]	expression of cleaved caspase-3 protein in the cerebral cortex [5]	activation of microglia [6]
C[C@@]12CCCN1C(=O)C1(CCCC1)NC2=O [Cyclic cyclopentyl-G-2MeP, (8aS)-Methyl-spiro[cyclopentane-1,3(4H)-tetrahydropyrrolo[1,2-a]pyrazine]-1,4(2H)-dione]	significantly increased the number of cells having neurites	significant decrease in glutamate-induced neurotoxicity												
N[C@@H](CCC(=O)O)C(=O)O [Glutamate, L-glutamate, reference compound]			~85											
C=CC[C@]12CCCN1C(=O)CNC2=O [cG-2-allylP, (8aS)-Allyl-hexahydropyrrolo[1,2-a]pyrazine-1,4-dione]	significantly increased the numbers of cells having neurites in a dose-dependent manner	significant decrease in glutamate-induced neurotoxicity		significantly reduced the tissue damage in each brain region examined	lessened the neural damage effects of hypoxia/ischemia	increased efficacy in brain regions that experienced progressive injury associated with delayed cell death	significantly attenuated the effect of pyridoxine on body weight on test day 9	greater gain of body weight than in animals treated with pyridoxine alone	significantly attenuate pyridoxine-mediated body weight loss on days 9, 14, 21 and 28	greater gain of body weight than in animals treated with pyridoxine alone	effectively prevented pyridoxine-induced beam walking errors	increase the pain threshold	decreased expression of cleaved caspase-3 protein in the cerebral cortex	reduce activation of microglia
